Measurements published in patent publication US12377166B2, “Iron oxide nanoparticle for targeted chemo-immunotherapy” (University of Washington, priority 2021, dated 2025).

Columns and labels:
4T1 cells [1] = assay: Alamar Blue cell viability assay; assay type: cell-based, murine; conditions: 72 h incubation
Experimental: Alamar Blue cell viability assay. Cells were seeded in a 96-well plate and incubated overnight. The following day, the medium was replaced with medium containing various agents. The cells were then incubated for 72 h. Cell viability was assessed using the Alamar Blue assay. Briefly, the medium was replaced with cell culture medium containing the reagent and allowed to incubate for 2 h. Following the incubation, a microplate reader (SpectraMax i3 multimode microplate reader, Molecular Devices) was used to determine the fluorescence intensity of the dye (550ex/590em). The fluorescence intensity from NP or free drug treated cells was compared to those from untreated control cells to determine percent viability. Each condition was triplicated.

4T1-luc flank tumor = assay: Tumor growth inhibition in 4T1-luc flank tumor model; assay type: in vivo; conditions: for inhibition to tumor growth as compared to PBS-treated mice: three I.V. doses days 7, 10, 13, free DOX 5 mg/kg, NP DOX 10 mg/kg, Poly IC 18 mg/kg
Experimental: 6-Week-old female BALB/c mice were used. 4T1-luc cells were transfected to stably express luciferase so that bioluminescence imaging could be used to monitor tumor growth. 4T1-luc cells were trypsinized and suspended in PBS (10^7 cells/mL) and injected subcutaneously into the right flanks of mice (0.1 mL per mouse). Seven days after tumor inoculation, twenty-eight mice were randomly divided into 7 groups and each group was administered through intravenous injection with three doses of one of the following agents: PBS, IONPs, DOX, Poly IC, IONP-DOX-EBP, IONP-DOX-Poly IC, and IONP-DOX-Poly IC-EBP. […] For all NP agents, doses of DOX and Poly IC were 10 mg/kg and 18 mg/kg, respectively. Each mouse received an injection at day 7, 10 and 13 after tumor inoculation. The tumor size was measured by a caliper and the tumor volume was calculated by equation: V=width^2×length/2. The tumor size was measured every 3 days starting at day 4 after tumor cell inoculation. The body weight was also monitored after first agent administration.

[2] = tested on: T cells (CD8, CD25, CD69); assay: Antigen-specific T cell response by flow cytometry in 4T1 tumor-bearing mice; assay type: in vivo, BALB/c mice; conditions: three days after treatment
Experimental: Twelve 6-week-old female BALB/c mice were used. 4T1 cells (10^5 cells per mouse) were inoculated subcutaneously into #9 mammary glands. The tumors were allowed to grow into palpable masses. Ten days after tumor inoculation, the 12 mice were separated into 4 treatment groups. Four treatments, including IONP-DOX-EBP-Poly IC (10 mg/kg DOX and Poly IC), IONP-DOX-EBP (10 mg/kg DOX), free Poly IC (10 mg/kg Poly IC) and PBS, were administered intravenously into four groups of mice bearing tumors (200 μL per mouse), respectively. Three days after administration, mice were euthanized, and tumors and spleens were harvested.
Harvested tumors and spleens were then sectioned, squeezed through 70 μm cell strainers and washed with PBS w/1% v/v ratio of FBS to obtain single cell suspensions. Cells were spun down with a centrifuge at 1500 rpm for 4 min and resuspended in 750 μL PBS w/1% v/v FBS. Anti-CD8-PE, anti-CD25-APC, and anti-CD69-FITC (Biolegend Inc.) solutions (3 μL each) were then mixed with 241 μL of PBS w/1% v/v FBS (total antibody solution volume for each single cell suspension was 250 μL). The cell/antibody suspension was then incubated in dark at room temperature for 30 mins. After incubation, 11 mL of PBS w/1% v/v FBS was added to all cell/antibody suspensions followed by centrifuging at 1500 rpm for 4 mins. Finally, all cell pellets were resuspended in 500 μL PBS w/1% v/v FBS and analyzed by flow cytometry (FACSCanto II).

IL-12 [3] = assay: Serum/plasma IL-12 after I.V. injection (ELISA); assay type: in vivo, mice; conditions: for change of plasma IL-12 level: I.V., DOX 5 mg/kg, Poly IC 18 mg/kg, or NP (DOX 10 mg/kg, Poly IC 18 mg/kg)
Experimental: Six-week-old mice were administered with IONP-DOX-Poly IC-EBP-Cy5 through I.V. injection (dosage: 10 mg/kg DOX or equivalent). At 1, 2, 4, 8, 24 and 72 h post-injection, blood (5-25 μL) was collected from tail vein. The total amount of blood withdrawn from each mouse never exceeded one percent of the total body weight of the animal during the experiment. Whole blood was diluted with PBS and spun using a benchtop centrifuge for 2 min at 5000 g to separate the plasma. The diluted plasma was added to a 96-well black plate. The plate was scanned on a SpectraMax i3 plate reader (fluorescence mode) to measure Cy5 (ex, 646 nm; em, 676 nm) and DOX (ex, 500 nm; em, 600 nm) fluorescence signals. Three mice were used for each group.
The same conditions in pharmacokinetics study were used here except that blood was collected before agent administration and 2, 6.5 and 24 h after administration. IL-12 in plasma was assessed using an ELISA kit following the manufacturer's instruction and quantified with a SpectraMax i3 plate reader.

IL-12 [4] = assay: IL-12 production by BMDCs (ELISA); assay type: cell-based, BALB/c mice; conditions: 10 μg/mL Poly IC equivalent, 24 h
Experimental: IL-12 production by ELISA assay. All conditions used were same as those for viability assay. Twenty-four hours after addition of agents into cell medium, supernatants were collected and IL-12 levels in medium were assessed by an ELISA assay kit following the manufacturer's protocol. Each condition was triplicated.

[5] = tested on: bone marrow-derived dendritic cells (BMDCs); assay: Confocal imaging of cellular uptake into BMDCs; assay type: cell-based, BALB/c mice; conditions: 10 μg/mL Poly IC equivalent, 1 h, 37 °C
Experimental: BMDCs preparation. BMDC were generated from female BALB/c mice of 6-8 weeks old. The isolation of bone marrow cells was carried out following the method described in Madaan, A., et al., Journal of Biological Methods (2014) 1 (1). Cells were resuspended in RPMI-1640 supplemented with 10% FBS, 20 ng/mL recombinant murine GM-CSF (Shenandoah Biotechnology, Inc, Warwick, PA), and antibiotics (Pen Strep). Cells were allowed to differentiate for 7 d with one addition of fresh media at day 3. At day 7, cells were aspirated and counted for assays. Medium containing 10 ng/mL GM-CSF was used in assays.
Confocal microscopic imaging of cellular uptake. Cells were seeded onto a chamber slide (Nunc™ Lab-Tek™ II Chamber Slide™ System, Thermo Fisher Scientific Rockford, IL) with a density of 50,000 per well and incubated overnight. DOX, IONP-DOX-EBP-Cy5, or IONP-DOX-Poly IC-EBP-Cy5 was added into cells at a concentration of 10 μg/mL Poly IC-equivalency and incubated for 1 h. Cells were then washed and imaged with a Leica SP8X confocal laser scanning microscope.

4T1-luc orthotopic tumor = assay: Tumor growth, survival and metastasis in 4T1-luc primary (orthotopic) tumor model; assay type: in vivo, BALB/c mice
Experimental: 6-Week-old female BALB/c mice were used in this study. 4T1-luc cells were injected subcutaneously into the #9 mammary glands (10^6 cells in 0.05 mL PBS per mouse). Seven days after tumor inoculation, eighteen mice were randomly divided into 3 groups and each group was administered through intravenous injection with five doses of one of the following agents: PBS, DOX, and IONP-DOX-Poly IC-EBP. For free DOX, dose was 5 mg/kg per injection. For IONP-DOX-Poly IC-EBP, doses of DOX and Poly IC were 10 mg/kg and 18 mg/kg, respectively. Each mouse received an injection at day 7, 10, 13, 16 and 19 after tumor inoculation. The tumor size and body weight were monitored after first administration. Metastasis was monitored by IVIS imaging starting at day 22 after tumor inoculation. Mice were imaged at day 22, 25, 28, 31, 34, 37, 41, 45 and 50. Mice were euthanized following the approved animal protocol.

[6] = tested on: 4T1-luc tumors and organs; assay: DOX uptake in organs and tumors by confocal imaging; assay type: in vivo, BALB/c mice; conditions: 10 mg/kg DOX, single I.V., 48 h post-injection
Experimental: (§1) One week after inoculated with 4T1-luc cells, mice were injected with various agents intravenously. Forty-eight hours later, mice were euthanized and organs (heart, kidney, liver, lung, and spleen) and tumors were harvested and pre-served in 10% formalin for 48 h. Formalin-fixed tissue samples were first transferred from PBS to 70% ethanol and maintained for 2 hours, and then were transferred into 95% ethanol/5% methanol and maintained for an additional 2 hours. The samples were transferred in absolute ethanol and maintained for 1 hour, and then transferred again into 3 consecutive absolute xylene solutions and maintained in each for 1 hour. The samples were dehydrated and then placed in 2 consecutive melted paraffin baths and maintained in each for 2 hours. The tissue samples were then embedded in paraffin blocks and sectioned at 10 um thickness and loaded onto microscope slides. The loaded slides were heated to remove excess paraffin and adhere the samples to the slides. The samples were then deparaffinized by a series of xylene, ethanol and PBS baths.
The deparaffinized tissue samples were stained with DAPI and WGA-AF647 and mounted with Prolong Gold mounting medium. Samples were imaged with a Leica SP8X confocal microscope.

4T1 cells [7] = assay: Cell uptake assay by flow cytometry; assay type: cell-based, murine; conditions: 2 h
Experimental: Cell uptake assay by flow cytometry. 4T1 cells were incubated with different agents for 2 h (10 μg/mL DOX or DOX equivalent NPs) at either 37° C. or 4° C., followed by washing with cold PBS for 3 times. Cells were then trypsinized and resuspended in cold PBS and analyzed by flow cytometry (FACSCanto II, BD Biosciences). Each condition was triplicated.

[8] = H&E histopathology of organs; assay type: in vivo, BALB/c mice; conditions: 10 mg/kg DOX equivalent, single I.V., 48 h
Experimental: as §1
The deparaffinized samples were stained with haemotoxylin and eosin, and mounted with Prolong Gold mounting medium. Microscopic images of tissues were acquired using a Nikon ECLIPSE TE 2000-S microscope.

Compound	toxicity to cells (viability) (4T1 cells [1])	inhibition to tumor growth as compared to PBS-treated mice (4T1-luc flank tumor)	CD8 cells in tumor [2]	CD25 cells in tumor [2]	CD69 cells in tumor [2]	time of peak IL-12 level post injection (IL-12 [3]; I.V. injection)	change of plasma IL-12 level (IL-12 [3])	production of IL-12 in cellular supernatants (IL-12 [4])	uptake and localisation of DOX in BMDCs [5]	median survival time (4T1-luc orthotopic tumor; five I.V. injections 3 days apart, free DOX 5 mg/kg, NP DOX 10 mg/kg, Poly IC 18 mg/kg)	metastasis delayed to day after tumor inoculation (4T1-luc orthotopic tumor; five I.V. injections, IVIS bioluminescence)	IC50 (cell viability) (4T1 cells [1]; DOX concentration)	DOX signal in liver [6]	DOX signal in tumors [6]	time to mouse death from severe toxicity (4T1-luc flank tumor; free DOX 10 mg/kg I.V.)	mean fluorescence intensity (MFI) of DOX, cellular uptake (4T1 cells [7]; 10 μg/mL DOX equivalent)	DOX taken up by cells at 4° C. (4T1 cells [7]; 4 °C vs 37 °C)	heart damage (H&E) [8]	pathological changes in organs other than heart (H&E) [8]
polyinosinic:polycytidylic acid [Poly IC]	non-toxic to cells	small	8.63%	7.91%	3.57%	1.5 h	rapid elevation of the IL-12 level	equivalent production of IL 12	–	–	–	–	–	–	–	–	–	–	–
COc1cccc2c1C(=O)c1c(O)c3c(c(O)c1C2=O)C[C@@](O)(C(=O)CO)C[C@@H]3O[C@H]1C[C@H](N)[C@H](O)[C@H](C)O1 [DOX, doxorubicin]	–	small	–	–	–	–	did not increase the IL-12 level	–	can enter BMDCs	32.5 days	31 days	about 0.36 μg/mL	strong and evenly distributed fluorescence signal	No observable DOX signal	less than 2 weeks	451	10%	severe heart damage	No pathological changes
